Experimental data from US20240148765A1, “COMPOSITIONS AND METHODS FOR TREATING AND/OR PREVENTING THERAPY-RELATED CARDIOMYOPATHY ASSOCIATED WITH NEUTROPHIL INFILTRATION” (University of Virginia Patent Foundation, priority 2021, published 2024).
Like-named read-outs stand apart in the source and are kept apart here. Each block holds one molecule with its values, some of them ahead of it.

Assays:
[1] = tested on: lethally irradiated mice transplanted with Trp53-heterozygous cells; experiment: Dox cardiotoxicity in myeloablative (competitive) BMT mice, 30% Trp53^+/− or wild-type cells
Description: (§1) Doxorubicin administration.
Quantitative RT-PCR. Mouse total RNA was isolated using QIAzol reagent (Catalog No. 79306; Qiagen, Inc., Germantown, Maryland, United States of America), and was purified on the QIAcube. 1 μg RNA was reverse transcribed with a High-capacity cDNA Reverse Transcription Kit (Catalog No. 4368814; Thermo Fisher Scientific). qRT-PCR was performed with POWERUP™ SYBR™ Green reagent (Catalog No. 4367659; Thermo Fisher Scientific) in a QUANTSTUDIO™ 6 Flex PCR system (Thermo Fisher Scientific). Gene expression was calculated relative to 36b4 and normalized to controls. Data were calculated by AACt approach.

Ccr2-deficient mice = experiment: Dox-induced cardiac toxicity in Ccr2-deficient mice; assay type: in vivo; conditions: Ccr2-deficient relative to wild-type mice, 15 μg/g split into 3 injections, 4 weeks
Description: Mice. […] All strains are C57BL/6J background.
as §1

[2] = tested on: myeloid-specific Trp53-deficient mice (Lyz2^Cre/+Trp53^fl/fl); conditions: mouse, in vivo
[3] = tested on: Trp53 mutant hematopoietic cells; experiment: Adoptive bone marrow transplantation model of Trp53 clonal hematopoiesis with cycles of Dox; flow cytometry chimerism and blood counts; assay type: in vivo, mice
Description: Non-myeloablative bone marrow transplantation.
as §1
(§2) Hematopoietic cell parameter measurements. […] Hematopoietic parameters were analyzed using an Element HT5 Veterinary Hematology Analyzer (Heska, Loveland, Colorado, United States of America).

C57BL6/J wild type mice = experiment: Single bolus of Dox in wild-type mice; cardiac parameters, blood counts, cardiac-resident leukocytes; assay type: in vivo
Description: as §1, §2

[4] = tested on: myeloid-specific Trp53-deficient mice (Lyz2^Cre/+Trp53^fl/fl); experiment: Dox-induced cardiotoxicity in myeloid-specific Trp53-deficient mice; conditions: Lyz2^Cre/+Trp53^fl/fl vs control mice treated with Dox
[5] = tested on: mice transplanted with wild-type or Trp53 mutant cells
CXCR2 = target: T1, CXCR2 (Mus musculus, UniProt P35343); experiment: CXCR2 inhibitor SB265610 in Dox-treated wild-type mice; assay type: in vivo; conditions: 2 mg/kg/day i.p.
T1 construct: from tissue; host or cells: whole animal: wild-type C57BL/6J mice (receptor on the animals' own neutrophils)
T1 sequence (P35343 1-359): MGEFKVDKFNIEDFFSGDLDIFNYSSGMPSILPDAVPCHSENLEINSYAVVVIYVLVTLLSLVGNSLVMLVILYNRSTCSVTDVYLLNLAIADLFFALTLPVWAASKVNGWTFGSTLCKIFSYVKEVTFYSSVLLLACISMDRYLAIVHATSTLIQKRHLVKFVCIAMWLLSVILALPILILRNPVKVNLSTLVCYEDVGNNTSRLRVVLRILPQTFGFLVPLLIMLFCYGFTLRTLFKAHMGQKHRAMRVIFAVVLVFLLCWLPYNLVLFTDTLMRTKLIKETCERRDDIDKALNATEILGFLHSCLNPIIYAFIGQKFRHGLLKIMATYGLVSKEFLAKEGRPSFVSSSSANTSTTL
Description: as §1
SB265610 (CXCR2 inhibitor) administration. SB265610 (1-(2-Bromophenyl)-3-(4-cyano-1H-benzo[d] [1,2,3]triazol-7-yl)urea, N-(2-Bromophenyl)-N′-(7-cyano-1H-benzotriazol-4-yl)urea; Catalog No. SML0421; Sigma-Aldrich, St. Louis, Missouri, United States of America) was used to inhibit neutrophil infiltration into tissues. Mice were injected intraperitoneally with 2 mg/kg of SB265610, once a day, over a time course that starts 1 day before the start of doxorubicin administration until the end of the study. The solution of SB265610 was prepared in sterile dimethyl sulfoxide (DMSO) to a concentration of 10 mg/ml. The aliquoted mixture was stored at −20° C. and thawed before use. The solution was mixed with corn oil (Sigma Catalog No. C8267) to minimize the toxic effect of DMSO just before injection. Injections were performed using a sterile syringe and needle (29G). The expiration date of the mixture coincided with the expiration date of the SB265610.

[6] = Trp53 heterozygous mutant vs wild-type bone marrow, 7 days after single Dox 15 μg/g
[7] = adoptive BMT mice, Dox in cycles vs saline
[8] = single bolus of Dox 15 μg/g i.p., up to 14 days
[9] = adoptive BMT mice treated with Dox
[10] = mice transplanted with wild-type cells, Dox cycles
[11] = mice with Trp53^R27OH mutant blood cells vs wild-type cells, Dox regimen

Structure (SMILES): COc1cccc2c1C(=O)c1c(O)c3c(c(O)c1C2=O)C[C@@](O)(C(=O)CO)C[C@@H]3O[C@H]1C[C@H](N)[C@H](O)[C@H](C)O1 [Dox, doxorubicin]
- heart transcripts of inflammatory mediators Il1b, Il6 and Tnf ([1]; 8 weeks after Dox, mutant Trp53 vs wild-type cells): significant increase
- fractional shortening and posterior wall thickness of the heart ([1]; Trp53^+/− vs wild-type group, VAF 0.15, after Dox): significant reductions
- neutrophil recruitment to the heart [1, 6]: greater neutrophil recruitment
- numbers of Ly6C^hi monocytes or macrophages within cardiac tissue [1, 6]: no effect
- cardiac dysfunction after Dox (Ccr2-deficient mice): comparable
- myocardial transcripts that encode inflammatory mediators [2]: upregulation
- proportions of donor-derived Trp53^+/− cells in bone marrow LSK, LT-HSC and GMP fractions ([3]; Dox vs saline control, at termination of the experiment): considerably higher
- expansion of donor-derived Trp53^+/− cells in circulating cell populations [3, 7]: further expansion
- expansion of transplanted wild-type cells in circulating cell populations [3, 7]: little or no effect
- hemoglobin levels and absolute numbers of hematopoietic cell types ([3]; after the fourth cycle of Dox, prolonged administration): altered some of these parameters
- expansion of donor-derived Trp53^R27OH clones in circulating leukocytes and bone marrow HSPC fractions ([3]; serial Dox administration, adoptive BMT): selective expansion
- cardiac wall dimension and function (C57BL6/J wild type mice; single bolus of Dox 15 μg/g i.p., 14 days): reductions
- body weight (C57BL6/J wild type mice; [8]): time-dependent loss
- heart weight (C57BL6/J wild type mice; [8]): time-dependent loss
- peripheral blood monocytes (C57BL6/J wild type mice; single bolus of Dox, 7-day timepoint): transient increase
- peripheral blood neutrophils (C57BL6/J wild type mice; single bolus of Dox, at 7 days, sustained to 14 days): increase
- neutrophil recruitment to the heart (C57BL6/J wild type mice; single bolus of Dox, levels maintained to 14 days): reached a peak at 7 days
- cardiac-resident macrophage number (C57BL6/J wild type mice; single bolus of Dox, nadir at 7 days): decreased
- cardiac-resident monocyte number (C57BL6/J wild type mice; single bolus of Dox, peak at 7 days): increased
- survival [4]: reduced survival
- capillary density in the myocardium [5, 9]: reduced capillary density
- fibrosis in the myocardium [5, 9]: greater fibrosis
- cardiac contractility (echocardiography) [5, 10]: deterioration
- ventricular wall (echocardiography) [5, 10]: thinning
- cardiac contractility (echocardiography) [5, 11]: significant reduction
- ventricular wall (echocardiography) [5, 11]: wall thinning
- functional impairment and wall thinning ([5]; mice with expanding Trp53^+/− clones vs wild-type cells, Dox cycles): significantly greater

- neutrophil influx to the hearts (CXCR2): reduced
- effects of Dox on cardiac wall thinning and function (CXCR2; 14-day timepoint): reversed
Structure (SMILES): N#Cc1ccc(NC(=O)Nc2ccccc2Br)c2[nH]nnc12 [SB265610, 1-(2-Bromophenyl)-3-(4-cyano-1H-benzo[d] [1,2,3]triazol-7-yl)urea, N-(2-Bromophenyl)-N′-(7-cyano-1H-benzotriazol-4-yl)urea]
